According to patent publication EP0745595A1, “3-(3-Aryloxyphenyl)-1-(substituted methyl)-s-triazine-2,4,6-oxo or thiotrione herbicidal agents” (American Cyanamid Company, priority 1995, dated 1996):

Assays:
Format in all cases: in vivo
CYPERUS IRIA = assay: Preemergence weed control under flooded paddy conditions, CYPIR (Rice Flatsedge); conditions: preemergence, 3-4 weeks after treatment
Description: (§1) Results of herbicide evaluation are expressed on a rating scale (0-9). The scale is based upon a visual observation of plant stand, vigor, malformation, size, chlorosis and overall plant appearance as compared with a control.
(§2) Preemergence herbicidal activity under flooded paddy conditions is determined as follows: plant seeds or propagating organs are planted in the top 0.5 cm of silt loam soil in 32 oz. plastic containers with a diameter of 10.5 cm and no drainage holes. Water is added to these containers and maintained at 1.5 to 3 cm above the soil surface for the duration of the experiment. […] The treated containers are placed on greenhouse benches and cared for according to normal greenhouse procedures.- Three to four weeks after treatment the test is terminated and each container is examined and herbicidal effect rated according to the rating system provided in Example 40. The compounds evaluated are reported by compound number given in Example 40.
(§3) Plant species employed in this example are reported by header abbreviation, common name and scientific name.

[1] = system: ECHINOCHLOA ORYZOIDES (ARD.)FRITSCH; assay: Preemergence weed control under flooded paddy conditions, ECHORC (Watergrass (Calif.)); conditions: preemergence, 3-4 weeks after treatment
Description: as §1, §2, §3

[…], PRESL. = Preemergence weed control under flooded paddy conditions, MOOVA (Monochoria); conditions: preemergence, 3-4 weeks after treatment
Description: as §1
Preemergence herbicidal activity under flooded paddy conditions is determined as follows: plant seeds or propagating organs are planted in the top 0.5 cm of silt loam soil in 32 oz. plastic containers with a diameter of 10.5 cm and no drainage holes. Water is added to these containers and maintained at 1.5 to 3 cm above the soil surface for the duration of the experiment. The test compounds are applied as aqueous/acetone mixtures 50/50 v/v pipetted directly into the flood water to give the equivalent of about 0.5, 0.25, 0.125 and 0.063 kg/ha of active ingredient. The treated containers are placed on greenhouse benches and cared for according to normal greenhouse procedures.- Three to four weeks after treatment the test is terminated and each container is examined and herbicidal effect rated according to the rating system provided in Example 40. The compounds evaluated are reported by compound number given in Example 40.
as §3

SAGITTARIA PYGMAEA, L. = assay: Preemergence weed control under flooded paddy conditions, SAGPY (Arrowhead (Pygmaea)); conditions: preemergence, 3-4 weeks after treatment
Description: as §1, §2, §3

[2] = system: ORYZA SATIVA, L. TEBONNET; assay: Rice tolerance to post-transplant applications under flooded paddy conditions, ORYSAT (Rice, Tebonnet); conditions: post-transplant rice, 3-4 weeks after treatment
Description: as §1
The tolerance of transplanted rice to post-transplanted herbicide applications is determined as follows: two ten-day-old rice seedlings (CV. Tebonnet) are transplanted into a silt loam soil in 32 oz. plastic containers with a diameter of 10.5 cm and no drainage holes. After transplanting the containers are flooded and the water level is maintained at 1.5 to 3 cm above the soil surface. […] The treated containers are placed on greenhouse benches, watered such that the water level is maintained as stated above, and cared for according to normal greenhouse procedures. Three to four weeks after treatment the test is terminated and each container is examined and herbicidal effect rated according to the rating system provided in Example 40. The compounds evaluated are reported by compound number given in Example 40.
as §3

[3] = system: CYPERUS SEROTINUS, ROTTB.; assay: Preemergence weed control under flooded paddy conditions, CYPSE (Flatsedge); conditions: preemergence, 3-4 weeks after treatment
Description: as §1, §2, §3

CHENOPODIUM ALBUM, L. = assay: Preemergence herbicidal evaluation, CHEAL (Lambsquarters, Common); conditions: rated four to five weeks after treatment
Excerpt: as §1
The preemergence herbicidal activity of the test compounds of the present invention is exemplified by the following tests in which the seeds of a variety of monocotyledonous and dicotyledonous plants are separately mixed with potting soil and planted on top of approximately one inch of soil in separate pint cups. […] The treated cups are then placed on greenhouse benches, watered and cared for in accordance with conventional greenhouse procedures. From four to five weeks after treatment, the tests are terminated and each cup is examined and rated according to the rating system provided in Example 40.
The compounds evaluated are reported by compound number given in Example 40.

With `C=CCn1c(=O)n(CC(=O)OCC)c(=O)n(-c2cc(Oc3ccc(C(F)(F)F)cc3Cl)ccc2[N+](=O)[O-])c1=O` [Compound 13, Ethyl 3-allyl-5-{5-[(2-chloro-α,α,α-tri-fluoro-p-tolyl)oxy]-2-nitrophenyl}tetra-hydro-2,4,6-trioxo-s-triazine-1(2H)-acetate] the “Herbicidal effect rating, CYPIR” value (CYPERUS IRIA; 0.063 kg/ha) was 9.0, the “Herbicidal effect rating, CYPIR” value (CYPERUS IRIA; 0.125 kg/ha) was 9.0 and the “Herbicidal effect rating, CYPIR” value (CYPERUS IRIA; 0.250 kg/ha) was 9.0. For the same compound, the “Herbicidal effect rating, CYPIR” value (CYPERUS IRIA; 0.500 kg/ha) was 9.0, the “Herbicidal effect rating, ECHORC” value ([1]; 0.063 kg/ha) was 9.0 and the “Herbicidal effect rating, ECHORC” value ([1]; 0.125 kg/ha) was 9.0. The “Herbicidal effect rating, ECHORC” value ([1]; 0.250 kg/ha) was 9.0, the “Herbicidal effect rating, ECHORC” value ([1]; 0.500 kg/ha) was 9.0 and the “Herbicidal effect rating, MOOVA” value ([…], PRESL.; 0.063 kg/ha) was 9.0. The “Herbicidal effect rating, MOOVA” value ([…], PRESL.; 0.125 kg/ha) was 9.0, the “Herbicidal effect rating, MOOVA” value ([…], PRESL.; 0.250 kg/ha) was 9.0 and the “Herbicidal effect rating, MOOVA” value ([…], PRESL.; 0.500 kg/ha) was 9.0. For the same compound, the “Herbicidal effect rating, SAGPY” value (SAGITTARIA PYGMAEA, L.; 0.063 kg/ha) was 0.0, the “Herbicidal effect rating, SAGPY” value (SAGITTARIA PYGMAEA, L.; 0.125 kg/ha) was 0.0 and the “Herbicidal effect rating, SAGPY” value (SAGITTARIA PYGMAEA, L.; 0.250 kg/ha) was 0.0. For the same compound, the “Herbicidal effect rating, SAGPY” value (SAGITTARIA PYGMAEA, L.; 0.500 kg/ha) was 0.0, the “Herbicidal effect rating, ORYSAT” value ([2]; 0.063 kg/ha) was 2.0 and the “Herbicidal effect rating, ORYSAT” value ([2]; 0.125 kg/ha) was 2.0. For the same compound, the “Herbicidal effect rating, ORYSAT” value ([2]; 0.250 kg/ha) was 3.0, the “Herbicidal effect rating, ORYSAT” value ([2]; 0.500 kg/ha) was 3.0 and the “Herbicidal effect rating, CYPSE” value ([3]; 0.063 kg/ha) was 0.0. The “Herbicidal effect rating, CYPSE” value ([3]; 0.125 kg/ha) was 0.0, the “Herbicidal effect rating, CYPSE” value ([3]; 0.250 kg/ha) was 0.0 and the “Herbicidal effect rating, CYPSE” value ([3]; 0.500 kg/ha) was 0.0.
Work on `COC(=O)Cn1c(=O)n(C)c(=O)n(-c2cc(Oc3c(Cl)cc(Cl)cc3Cl)ccc2[N+](=O)[O-])c1=O` [Compound 33, Methyl tetrahydro-3-methyl-5-[2-nitro-5-(2,4,6-trichlorophenoxy)phenyl]-2,4,6-trioxo-s-triazine-1(2H)-acetate] yielded a CHEAL herbicidal rating (CHENOPODIUM ALBUM, L.; Rate 0.125 kg/ha) of 9.0, a CHEAL herbicidal rating (CHENOPODIUM ALBUM, L.; Rate 0.250 kg/ha) of 9.0 and a CHEAL herbicidal rating (CHENOPODIUM ALBUM, L.; Rate 0.500 kg/ha) of 9.0. For the same compound, the “Herbicidal effect rating, CYPIR” value (CYPERUS IRIA; 0.063 kg/ha) was 9.0, the “Herbicidal effect rating, CYPIR” value (CYPERUS IRIA; 0.125 kg/ha) was 9.0 and the “Herbicidal effect rating, CYPIR” value (CYPERUS IRIA; 0.250 kg/ha) was 9.0. The “Herbicidal effect rating, CYPIR” value (CYPERUS IRIA; 0.500 kg/ha) was 9.0, the “Herbicidal effect rating, MOOVA” value ([…], PRESL.; 0.063 kg/ha) was 9.0 and the “Herbicidal effect rating, MOOVA” value ([…], PRESL.; 0.125 kg/ha) was 9.0. For the same compound, the “Herbicidal effect rating, MOOVA” value ([…], PRESL.; 0.250 kg/ha) was 9.0, the “Herbicidal effect rating, MOOVA” value ([…], PRESL.; 0.500 kg/ha) was 9.0 and the “Herbicidal effect rating, SAGPY” value (SAGITTARIA PYGMAEA, L.; 0.063 kg/ha) was 0.0. The “Herbicidal effect rating, SAGPY” value (SAGITTARIA PYGMAEA, L.; 0.125 kg/ha) was 0.0, the “Herbicidal effect rating, SAGPY” value (SAGITTARIA PYGMAEA, L.; 0.250 kg/ha) was 0.0 and the “Herbicidal effect rating, SAGPY” value (SAGITTARIA PYGMAEA, L.; 0.500 kg/ha) was 0.0. The “Herbicidal effect rating, ORYSAT” value ([2]; 0.063 kg/ha) was 3.0, the “Herbicidal effect rating, ORYSAT” value ([2]; 0.125 kg/ha) was 3.0 and the “Herbicidal effect rating, ORYSAT” value ([2]; 0.250 kg/ha) was 3.0. For the same compound, the “Herbicidal effect rating, ORYSAT” value ([2]; 0.500 kg/ha) was 4.0, the “Herbicidal effect rating, CYPSE” value ([3]; 0.063 kg/ha) was 0.0 and the “Herbicidal effect rating, CYPSE” value ([3]; 0.125 kg/ha) was 0.0. For the same compound, the “Herbicidal effect rating, CYPSE” value ([3]; 0.250 kg/ha) was 0.0 and the “Herbicidal effect rating, CYPSE” value ([3]; 0.500 kg/ha) was 0.0.
